Test system: H358 (KRAS G12C mutant) cells
Assay: Tumor cell proliferation inhibition assay (Cell Titer-Glo, 72 h)
Assay type: cell-based
Conditions: inhibition of tumor cell proliferation, 72 hours with compound, 10% fetal bovine serum; read-out: NCI-H538 IC50(nm)
Procedure: The H358 (KRAS G^12C mutant) cells were digested, centrifuged and resuspended, and the cell density was measured with a Scepter automatic cell counter. The cells were diluted to a solution containing 44,000 cells per milliliter, and the density-adjusted cell solution was 90 microliters per well. into a 96-well culture plate. The 96-well plate was placed in a 37° C., 5% CO2 incubator. After the cells were cultured for 24 hours, different concentrations of the compounds to be tested were added. The cells were incubated with the compounds for 72 hours in the presence of 10% fetal bovine serum. Glo Luminescent Cell Viability Assay Kit (see manufacturer's instructions for details) was used to measure ATP content to assess cell growth inhibition. Briefly, 30 μl of Cell Titer-Glo reagent was added to each well, and the plate was shaken for 10 minutes to induce cell lysis. Fluoroskan
Ascent FL (Thermo) assay was used to record the fluorescent signal, and the maximum signal value was obtained from cells treated with dimethyl sulfoxide for 72 hours. The minimum signal value was obtained from the medium alone (the number of cells was zero), and the % inhibition rate=(the maximum signal value compound signal value)/(the maximum signal value—the minimum signal value×100%, and the data were processed using Graphpadprism 5 software. By sigmoid Dose-response curve fitting to calculate the IC50 value. “A” means IC50≤50 nM; “B” means 50<IC50≤500 nM; “C” means 500<IC50≤2000 nM; “D” means 2000 nM<IC50

| Substance | IC50 [nM] |
| --- | --- |
| 6-Chloro-7-(3-hydroxy-8-fluoronaphthyl)-8-fluoro-4-(((S)-4-(2-fluoroacryloyl)-3-carbonitrileethylpiperazine)-1-yl)-2-(((S)-2,2-difluorotetrahydro-1H-pyrincycline-7a(5H)-yl)methoxy)quinazoline [Compound 77] | ≤ 50 |
| 6-Chloro-7-(3-hydroxy-8-fluoronaphthyl)-8-fluoro-4-(((S)-4-acryloyl-3-carbonitrileethylpiperazine)-1-yl)-2-(((S)-2,2-difluorotetrahydro-1H-pyrinyl-7a(5H)-yl)methoxy)quinazoline [Compound 76] | ≤ 50 |
| 6-Chloro-7-(8-fluoronaphthyl)-8-fluoro-4-(((R)-4-acryloyl-2-methylpiperazine)-1-yl)-2-(((2R,7aS)-2-fluorotetrahydro-1H-pyrincycline-7a(5H)-yl)methoxy)quinazoline [Compound 37] | ≤ 50 |
| 6-Chloro-7-(8-fluoronaphthyl)-8-fluoro-4-(((S)-4-acryloyl-3-carbonitrileethylpiperazine)-2-(((S)-2,2- difluorotetrahydro-1H-pyrincyclo-7a(5H)-yl)methoxy)quinazoline [Compound 75] | ≤ 50 |
| 6-Chloro-7-(8-methylnaphthyl)-8-fluoro-4-(((R)-4-acryloyl-2-methylpiperazine)-1-yl)-2-(((2R,7aS)-2-fluorotetrahydro-1H-pyrinyl-7a(5H)-yl)methoxy)quinazoline [Compound 73] | ≤ 50 |
| 6-Chloro-7-(8-methylnaphthyl)-8-fluoro-4-(((R)-4-acryloyl-2-methylpiperazine)-1-yl)-2-((((S))-2,2-Difluorotetrahydro-1H-pyrincycline-7a(5H)-yl)methoxy)quinazoline [Compound 74] | ≤ 50 |
| 6-Chloro-74(3-hydroxy-8-fluoronaphthyl)-8-fluoro-4-(((S)-4-(2-fluoroacryloyl)-3-carbonitrileethylpiperazine)-1-yl)-2-(((2R,7aS)-2-fluorotetrahydro-1H-pyrincycline-7a(5H)-yl)methoxy)quinazoline [Compound 43] | ≤ 50 |
| 7-(2-Fluoro-6-hydroxyphenyl)-6-fluoro-4-(((S)-4-(2-fluoroacryloyl)-3-carbonitrileethylpiperazine)-1-yl)-2-(((S)-1-(methyl-d3)pyrrolidin-2-yl)methoxy)pyridine[2,3-d]lopyrimidine [Compound 11] | > 2000 |
| 7-(3-Hydroxy-8-fluoronaphthyl)-8-fluoro-4-(((R)-4-acryloyl-2-methylpiperazine)-1-yl)-2-(((S)-2,2-difluorotetrahydro-1H-pyrincycline-7a(5H)-yl)methoxy)quinazoline [Compound 70] | ≤ 50 |
| 7-(3-Hydroxy-8-fluoronaphthyl)-8-fluoro-4-(((S)-4-(2-fluoroacryloyl)-3-carbonitrileethylpiperazine)-2-((((S)-2,2-Difluorotetrahydro-1H-pyrincycline-7a(5H)-yl)methoxy)quinazoline [Compound 65] | ≤ 50 |
| 7-(3-Hydroxy-8-fluoronaphthyl)-8-fluoro-4-(((S)-4-acryloyl-3-carbonitrileethylpiperazine)-2-(((S)-2,2-difluorotetrahydro-1H-pyrincyclo-7a(5H)-yl)methoxy)quinazoline [Compound 64] | ≤ 50 |
| 7-(8-Chloronaphthalene)-4-(((R)-4-Acryloyl-2-methylpiperazine)-1-yl)-2-(((1-(pyrrolidin-1-yl)methancycloprop an-1-yl)methoxy)pyridine[2,3-d]lopyrimidine [Compound 14] | ≤ 50 |
| 7-(8-Chloronaphthalene)-4-(((R)-4-Acryloyl-2-methylpiperazine)-1-yl)-24(1-(N,N-dimethylamino)) methylcyclopropan-1-yl)methoxy)pyridine[2,3-d]lopyrimidine [Compound 23] | ≤ 50 |
| 7-(8-Chloronaphthalene)-4-(((R)-4-Acryloyl-3-carbonitrileethylpiperazine)-1-yl)-2-(((1-(pyrrolidin-1-yl)methylcyclopropan-1-yl)methoxy)pyridine[2,3-d]lopyrimidine [Compound 16] | ≤ 50 |
| 7-(8-Chloronaphthalene)-4-(((R)-4-Acryloyl-3-carbonitrileethylpiperazine)-1-yl)-24(1-(N,N-dimethylaminyl)methylcyclopropan-1-yl)methoxy)pyridine[2,3-d]lopyrimidine [Compound 20] | ≤ 50 |
| 7-(8-Fluoronaphthalene)-4-(((R)-4-Acryloyl-2-methylpiperazine)-1-yl)-2-(((1-(pyrrolidin-1-yl)methyl cyclopropan-1-yl)methoxy)pyridine[2,3-d]lopyrimidine [Compound 13] | ≤ 50 |

| Substance | IC50 [nM] |
| --- | --- |
| 7-(8-Fluoronaphthalene)-4-(((R)-4-Acryloyl-2-methylpiperazine)-1-yl)-24(1-(N,N-dimethylamino)) methylcyclopropan-1-yl)methoxy)pyridine[2,3-d]lopyrimidine [Compound 24] | ≤ 50 |
| 7-(8-Fluoronaphthalene)-4-(((R)-4-Acryloyl-3-carbonitrileethylpiperazine)-1-y1)-2-(((1-(pyrrolidin-1-yl)methylcyclopropan-1-yl)methoxy)pyridine[2,3-d]lopyrimidine [Compound 15] | ≤ 50 |
| 7-(8-Fluoronaphthalene)-4-(((R)-4-Acryloyl-3-carbonitrileethylpiperazine)-1-yl)-24(1-(N,N-dimethylamineyl)methylcyclopropan-1-yl)methoxy)pyridine[2,3-d]lopyrimidine [Compound 21] | ≤ 50 |
| 7-(8-Fluoronaphthyl)-6-fluoro-4-(8-(2-fluoroacryloyl)-3,8-diazabicyclo[3.2.1]octan-3-yl)-2-(((2R,7aS)-2-fluorotetrahydro-1H-pyrinyl-7a(5H)-yl)methoxy)pyridine[2,3-d]lopyrimidine [Compound 31] | ≤ 50 |
| 7-(8-Fluoronaphthyl)-6-fluoro-4-(((R)-4-acryloyl-2-methylpiperazine)-1-yl)-2-(((S)-2,2-difluorotetrahydro-1H-pyrincycl-7a(5H)-yl)methoxy)pyridine[2,3-d]lopyrimidine [Compound 79] | ≤ 50 |
| 7-(8-Fluoronaphthyl)-6-fluoro-4-(((S)-4-(2-acryloyl)-3-carbonitrileethylpiperazine)-1-yl)-2-((((S)-1-(methyl-d3)pyrrolidin-2-yl)methoxy)pyridine[2,3-d]lopyrimidine [Compound 9] | ≤ 50 |
| 7-(8-Fluoronaphthyl)-8-fluoro-4-(((R)-4-acryloyl-2-methylpiperazine)-1-yl)-2-(((2R,7aS)-2-fluorotetrahydro-1H-pyrincyclo-7a(5H)-yl)methoxy)quinazoline [Compound 69] | ≤ 50 |
| 7-(8-Fluoronaphthyl)-8-fluoro-4-(((S)-4-(2-fluoro acryloyl)-3-c arbonitrileethylpiperazine)-1-yl)-2-((tetrakis Hydrogen-1H-pyrinyl-7a(5H)-yl)methoxy)quinazoline [Compound 88] | ≤ 50 |
| 7-(8-Fluoronaphthyl)-8-fluoro-4-(((S)-4-acryloyl-3-carbonitrileethylpiperazine)-1-yl)-2-(((S)-2,2-Difluorotetrahydro-1H-pyrinyl-7a(5H)-yl)methoxy)quinazoline [Compound 63] | ≤ 50 |
| 7-(8-Fluoronaphthyl)-8-fluoro-(((S)-4-(2-fluoroacryloyl)-3-carbonitrileethylpiperazine)-1-yl)-2-((((S)-2,2-difluorotetrahydro-1H-pyrincycline-7a(5H)-yl)methoxy)quinazoline [Compound 66] | ≤ 50 |
| 7-(8-Methylnaphthalene)-4-(((R)-4-Acryloyl-2-methylpiperazine)-1-yl)-2-(((1-(pyrrolidin-1-yl)methylcyclopropan-1-yl)methoxy)pyridine[2,3-d]lopyrimidine [Compound 17] | ≤ 50 |
| 7-(8-Methylnaphthalene)-4-(((R)-4-Acryloyl-2-methylpiperazine)-1-yl)-24(1-(N,N-dimethylamineyl)methylcyclopropan-1-yl)methoxy)pyridine[2,3-d]lopyrimidine [Compound 22] | ≤ 50 |
| 7-(8-Methylnaphthalene)-4-(((R)-4-Acryloyl-3-carbonitrileethylpiperazine)-1-yl)-2-(((1-(pyrrolidin-1-yl))methylcyclopropan-1-yl)methoxy)pyridine[2,3-d]lopyrimidine [Compound 18] | ≤ 50 |
| 7-(8-Methylnaphthalene)-4-(((R)-4-Acryloyl-3-carbonitrileethylpiperazine)-1-yl)-24(1-(N,N-Dimethyl)amino)methylcyclopropan-1-yl)methoxy)pyridine[2,3-d]lopyrimidine [Compound 19] | ≤ 50 |
| 7-(8-Methylnaphthyl)-4-(((R)-4-acryloyl-2-methylpiperazine)-1-yl)-2-(((S)-2,2-difluoro tetrahydro-1H-pyrincycl-7a(5H)-yl)methoxy)pyridine[2,3-d]lopyrimidine [Compound 87] | ≤ 50 |

Source: US20240182470A1, “KRASG12C MUTANT PROTEIN INHIBITOR, PREARATION AND USE THEREOF” (YA THERAPEUTICS INC, priority 2021, published 2024)
